Assay results: US20240398737A1, “FUNCTIONALIZED LONG-CHAIN HYDROCARBON MONO- AND DI-CARBOXYLIC ACIDS AND DERIVATIVES THEREOF, AND THEIR USE FOR THE PREVENTION OR TREATMENT OF DISEASE” (Espervita Therapeutics, Inc., priority 2021, published 2024)

Tests used:
DDR2 = DDR2 (Homo sapiens (Human), UniProt Q16832); experiment: Wild type kinase screen: DDR2; format: biochemical; conditions: compound at 10 μM, 10 μM ATP, Data 1 and Data 2 duplicates
[1] = system: Mouse primary hepatocytes; experiment: 14C-acetate incorporation into total lipids in mouse primary hepatocytes; format: cell-based; conditions: incorporation of 14C-acetate in primary mouse hepatocyte total lipids, 4 hours, 100 μM
Description: After perfusion, collagen digested liver cells were re-suspended in William's E media (11 mM glucose) (Gibco) supplemented with 10% fetal bovine serum (FBS) (Gibco), 2 mM L-glutamine (Gibco) and 1% Antibiotic-Antimycotic (Gibco) mixture and seeded in white opaque 96-well plates. On the following day, the cells were serum-starved for 2 hours, then treated with 0 μM, 0.1 μM, 0.3 μM, 0.5 μM, 1 μM, 3 μM, 10 μM, and 100 μM of Compound I-32, Compound I-1, Compound III-1 or Reference Compound (e.g., any of Compounds A-E or bempedoic acid) in the presence of ^14C-Acetate (1 μCi/ml, PerkinElmer). Each of Compound I-32, Compound I-1, Compound III-1, and Reference Compound was solubilized in 100% DMSO to a final concentration of 100 mM stock solution. In the experimental condition, the stock solution was diluted in serum free media (William's E media (11 mM glucose) (Gibco), 2 mM L-glutamine (Gibco) and 1% Antibiotic-Antimycotic) to yield the desired concentration of each compound. […] After 4 hours of treatment, the plates were washed two times with PBS (×1) and 100 μL microscint fluid (Microscint 0, part #601361) was added in each well. Plates were wrapped with aluminum foil and were shaken at 250 rpm for 2 h. After 2 h of shaking, ^14C incorporation into lipid was determined by liquid scintillation counting using a TopCount NXT Microplate Scintillation and Luminescence Counter (Perkin Elmer).
The effects of Compound I-32, Compound I-1, and Compound III-1 on mouse primary hepatocyte lipogenesis are represented in Table 13. Each Compound was assayed at a concentration of 0 μM (vehicle control), 0.1 μM, 0.3 μM, 0.5 μM, 1 μM, 3 μM, 10 μM, and 100 μM, unless otherwise noted. Statistically significant inhibition was determined by one-way ANOVA and Dennett's post hoc test where appropriate. […] IC50 values were determined by nonlinear regression. All statistical analyses were carried out using GraphPad Prism 8 software. A p-value of less than or equal 0.05 was considered significant.

AURORA C = AURORA C (Homo sapiens (Human), UniProt Q9UQB9); experiment: Wild type kinase screen: AURORA C; format: biochemical; conditions: compound at 10 μM, 10 μM ATP, Data 1 and Data 2 duplicates
Sequence of AURORA C (Q9UQB9 whole entry): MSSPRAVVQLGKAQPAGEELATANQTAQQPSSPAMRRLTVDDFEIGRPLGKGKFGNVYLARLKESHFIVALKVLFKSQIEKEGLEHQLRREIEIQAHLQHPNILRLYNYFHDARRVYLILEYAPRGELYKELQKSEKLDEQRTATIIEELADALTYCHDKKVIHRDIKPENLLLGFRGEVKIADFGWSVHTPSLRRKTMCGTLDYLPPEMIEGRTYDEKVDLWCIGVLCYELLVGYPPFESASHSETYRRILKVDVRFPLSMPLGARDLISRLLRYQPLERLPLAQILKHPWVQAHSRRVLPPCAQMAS

Aurora A = Aurora A (Homo sapiens (Human), UniProt O14965); experiment: Wild type kinase screen: Aurora A; format: biochemical; conditions: compound at 10 μM, 10 μM ATP, Data 1 and Data 2 duplicates
TNIK = TNIK (Homo sapiens (Human), UniProt Q9UKE5); experiment: Wild type kinase screen: TNIK; format: biochemical; conditions: compound at 10 μM, 10 μM ATP, Data 1 and Data 2 duplicates
[2] = system: hepatic de novo lipogenesis; experiment: Hepatic de novo lipogenesis (14C-glucose) in a murine model of NASH; format: in vivo, mouse; conditions: 100 mg/kg as printed in the text (Table 6 prints 60 mg/kg)
FLT1/VEGFR1 = FLT1/VEGFR1 (Homo sapiens (Human), UniProt P17948); experiment: Wild type kinase screen: FLT1/VEGFR1; format: biochemical; conditions: compound at 10 μM, 10 μM ATP, Data 1 and Data 2 duplicates
Human ACC2 = Human ACC2 (Homo sapiens (Human), UniProt O00763); experiment: ACC2 enzymatic assay (ADP-Glo); format: biochemical; design: key to Compound IC50 (M) ACC2: *: No detectable inhibition or compound activity; conditions: recombinant human ACC2 1 nM; 10 concentrations from 300 μM; Runs 1-3
Sequence of Human ACC2 (O00763 whole entry): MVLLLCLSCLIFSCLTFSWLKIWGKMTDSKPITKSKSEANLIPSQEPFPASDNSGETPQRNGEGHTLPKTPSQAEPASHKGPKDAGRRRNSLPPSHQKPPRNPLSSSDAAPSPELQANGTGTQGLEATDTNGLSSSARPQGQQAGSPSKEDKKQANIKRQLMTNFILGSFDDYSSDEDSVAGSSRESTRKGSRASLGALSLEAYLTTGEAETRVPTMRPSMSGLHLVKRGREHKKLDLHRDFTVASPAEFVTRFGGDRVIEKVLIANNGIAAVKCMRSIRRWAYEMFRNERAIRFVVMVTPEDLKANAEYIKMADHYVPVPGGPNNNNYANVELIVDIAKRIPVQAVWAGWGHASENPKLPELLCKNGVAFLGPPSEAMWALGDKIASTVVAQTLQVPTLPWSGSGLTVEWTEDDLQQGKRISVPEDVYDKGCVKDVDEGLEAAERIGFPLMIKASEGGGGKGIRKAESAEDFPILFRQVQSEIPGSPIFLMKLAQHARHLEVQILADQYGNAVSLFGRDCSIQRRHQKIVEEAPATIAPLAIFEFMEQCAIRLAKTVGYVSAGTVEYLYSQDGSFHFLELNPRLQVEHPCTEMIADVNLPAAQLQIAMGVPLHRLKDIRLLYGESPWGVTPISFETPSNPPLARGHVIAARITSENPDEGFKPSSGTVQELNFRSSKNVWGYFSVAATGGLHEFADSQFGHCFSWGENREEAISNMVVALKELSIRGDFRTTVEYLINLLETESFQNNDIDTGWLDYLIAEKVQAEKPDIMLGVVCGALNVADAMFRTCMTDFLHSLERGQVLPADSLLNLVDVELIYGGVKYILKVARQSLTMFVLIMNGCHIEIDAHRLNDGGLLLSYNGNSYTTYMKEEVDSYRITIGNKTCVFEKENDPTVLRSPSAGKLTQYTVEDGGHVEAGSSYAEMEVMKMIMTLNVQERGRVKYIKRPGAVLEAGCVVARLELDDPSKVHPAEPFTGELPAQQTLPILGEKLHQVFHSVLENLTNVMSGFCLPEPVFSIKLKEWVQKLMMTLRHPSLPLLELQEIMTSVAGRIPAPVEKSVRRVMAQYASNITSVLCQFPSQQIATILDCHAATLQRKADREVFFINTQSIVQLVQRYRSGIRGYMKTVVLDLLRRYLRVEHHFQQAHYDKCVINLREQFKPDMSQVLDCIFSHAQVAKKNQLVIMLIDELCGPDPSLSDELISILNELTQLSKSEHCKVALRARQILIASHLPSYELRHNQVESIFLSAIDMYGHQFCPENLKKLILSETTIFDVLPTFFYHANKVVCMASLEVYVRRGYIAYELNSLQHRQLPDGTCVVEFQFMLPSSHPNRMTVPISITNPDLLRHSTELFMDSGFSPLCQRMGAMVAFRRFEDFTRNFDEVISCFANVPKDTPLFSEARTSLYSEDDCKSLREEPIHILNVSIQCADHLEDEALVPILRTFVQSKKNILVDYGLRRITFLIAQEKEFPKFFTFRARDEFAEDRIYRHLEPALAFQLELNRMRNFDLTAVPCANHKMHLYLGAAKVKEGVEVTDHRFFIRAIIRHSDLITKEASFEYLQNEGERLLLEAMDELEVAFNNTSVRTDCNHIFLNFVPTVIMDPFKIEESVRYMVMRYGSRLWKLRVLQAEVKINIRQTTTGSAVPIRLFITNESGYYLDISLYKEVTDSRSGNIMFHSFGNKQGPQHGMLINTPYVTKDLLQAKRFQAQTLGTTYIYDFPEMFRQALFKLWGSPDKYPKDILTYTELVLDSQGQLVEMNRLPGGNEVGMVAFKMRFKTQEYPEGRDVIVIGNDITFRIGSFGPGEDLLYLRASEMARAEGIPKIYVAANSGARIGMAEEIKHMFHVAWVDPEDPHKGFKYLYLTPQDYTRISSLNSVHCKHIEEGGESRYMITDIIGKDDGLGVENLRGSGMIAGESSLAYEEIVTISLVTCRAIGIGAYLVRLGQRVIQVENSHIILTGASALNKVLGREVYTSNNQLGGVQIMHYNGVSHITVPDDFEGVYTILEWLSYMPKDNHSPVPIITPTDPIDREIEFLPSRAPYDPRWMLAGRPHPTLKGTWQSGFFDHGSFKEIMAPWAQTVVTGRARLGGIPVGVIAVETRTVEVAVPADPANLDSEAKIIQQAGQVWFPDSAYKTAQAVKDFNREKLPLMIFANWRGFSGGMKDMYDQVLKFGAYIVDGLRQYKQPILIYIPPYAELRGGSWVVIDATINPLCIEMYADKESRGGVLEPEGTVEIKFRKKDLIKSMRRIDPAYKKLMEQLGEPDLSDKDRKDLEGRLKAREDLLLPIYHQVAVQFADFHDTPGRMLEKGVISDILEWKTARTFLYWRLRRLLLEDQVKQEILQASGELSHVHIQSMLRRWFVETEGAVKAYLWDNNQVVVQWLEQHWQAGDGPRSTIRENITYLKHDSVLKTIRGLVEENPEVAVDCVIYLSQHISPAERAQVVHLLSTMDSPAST
Description: Human ACC1 (Cat #50202 Lot #120830) and ACC2 (Cat #50201 Lot #160217) were obtained from BPS Biosciences, San Diego, CA 92121. Human ACC1 had C-terminal flag and His-tags with a MW of 270 KDa after purification from Baculovirus infected Sf9 cell expression system and came as a solution in 50 mM Tris-HCl, pH 8.0, 500 mM NaCl, 10% glycerol, 1 mM DTT, 100 μg/ml FLAG peptide with 70% purity. The stock concentration was 0.25 mg/ml corresponding to 0.926 μM. Human ACC2 was also purified from Baculovirus infected Sf9 expression system. […] The stock concentration was 0.1 mg/ml corresponding to 0.36 μM. The assay buffer for measuring the activity of ACC contained: 30 mM HEPES (pH 7.4), 2 mM MgCl2, 0.01% Brij35, 2 mM DTT, 1% DMSO (solvent for compound). For ACC1 and ACC2 assays, the following concentrations of substrate and cofactors were used: 12 mM NaHCO3, 10 μM acetyl CoA, 10 μM ATP, and 2 mM K-citrate. The recombinant human enzyme was used at 5 nM for ACC1 and 1 nM for ACC2. In brief, enzyme alone in the above buffer without substrate was used for background. All test materials were dissolved in 100% DMSO using acoustic technology (Echo550). The prepared solution was preincubated for 15 min followed by the addition of 5 μL/well of ADP standard. ATP was then added to start the reaction. The assay contents were spun and briefly shaken followed by incubation at room temperature for 1 h. At the end of completion of assay, 5 μL of ADP-Glo was added to each well to stop the reaction. The contents were mixed, spun and incubated at room temperature for 40 min followed by the addition of 10 μL/well of ADP detection reagent. The contents were spun, mixed and covered with plastic to measure luminescence. […] The light generated, measured in a luminometer, correlates to the amount of ADP generated in the ACC assay, which is indicative of ACC activity.
The enzyme concentrations for ACC1 and ACC2 were 5 nM and 1 nM, respectively.
Data represent nM or μM ADP produced, % Activity (relative to no inhibitor controls), and curve fits were performed by GraphPad Prism software. The IC50 concentration-response curves were generated for both the ACC1 and ACC2 assays using recombinant human ACC.

NEK2 = NEK2 (Homo sapiens (Human), UniProt P51955); experiment: Wild type kinase screen: NEK2; format: biochemical; conditions: compound at 10 μM, 10 μM ATP, Data 1 and Data 2 duplicates
Sequence of NEK2 (P51955 whole entry, species assumed): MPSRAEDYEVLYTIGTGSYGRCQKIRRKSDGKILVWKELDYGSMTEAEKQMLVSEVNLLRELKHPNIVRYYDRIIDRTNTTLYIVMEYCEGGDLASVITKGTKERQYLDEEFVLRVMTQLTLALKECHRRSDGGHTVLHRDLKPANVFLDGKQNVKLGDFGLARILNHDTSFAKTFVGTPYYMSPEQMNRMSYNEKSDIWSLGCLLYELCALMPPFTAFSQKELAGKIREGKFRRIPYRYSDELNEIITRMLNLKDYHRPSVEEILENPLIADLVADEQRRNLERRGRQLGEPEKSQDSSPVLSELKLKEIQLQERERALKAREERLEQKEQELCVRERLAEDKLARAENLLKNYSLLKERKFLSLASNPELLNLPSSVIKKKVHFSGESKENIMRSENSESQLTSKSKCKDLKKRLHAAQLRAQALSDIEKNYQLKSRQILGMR

BMX/ETK = BMX/ETK (Homo sapiens (Human), UniProt P51813); experiment: Wild type kinase screen: BMX/ETK; format: biochemical; conditions: compound at 10 μM, 10 μM ATP, Data 1 and Data 2 duplicates
Sequence of BMX/ETK (P51813 whole entry): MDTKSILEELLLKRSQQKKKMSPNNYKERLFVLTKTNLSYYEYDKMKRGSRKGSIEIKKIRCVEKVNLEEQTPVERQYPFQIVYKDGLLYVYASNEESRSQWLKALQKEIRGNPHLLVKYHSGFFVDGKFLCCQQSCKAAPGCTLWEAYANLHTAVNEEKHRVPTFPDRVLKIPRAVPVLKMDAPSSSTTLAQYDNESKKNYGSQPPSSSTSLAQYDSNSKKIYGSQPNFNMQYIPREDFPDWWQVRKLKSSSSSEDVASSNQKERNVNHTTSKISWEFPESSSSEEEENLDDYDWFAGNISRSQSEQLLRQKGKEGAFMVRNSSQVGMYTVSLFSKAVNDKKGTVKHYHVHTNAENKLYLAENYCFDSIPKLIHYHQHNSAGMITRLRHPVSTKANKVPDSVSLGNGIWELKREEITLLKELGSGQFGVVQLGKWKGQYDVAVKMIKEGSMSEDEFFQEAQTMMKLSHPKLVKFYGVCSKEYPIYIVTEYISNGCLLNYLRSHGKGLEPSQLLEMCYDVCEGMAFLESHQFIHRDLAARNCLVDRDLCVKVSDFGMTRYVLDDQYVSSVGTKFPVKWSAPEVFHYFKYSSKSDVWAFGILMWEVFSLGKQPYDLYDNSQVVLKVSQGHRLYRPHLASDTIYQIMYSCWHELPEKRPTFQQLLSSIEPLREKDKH

MAPKAPK2 = MAPKAPK2 (Homo sapiens (Human), UniProt P49137); experiment: Wild type kinase screen: MAPKAPK2; format: biochemical; conditions: compound at 10 μM, 10 μM ATP, Data 1 and Data 2 duplicates

Sequence of DDR2 (Q16832 22-855, species assumed): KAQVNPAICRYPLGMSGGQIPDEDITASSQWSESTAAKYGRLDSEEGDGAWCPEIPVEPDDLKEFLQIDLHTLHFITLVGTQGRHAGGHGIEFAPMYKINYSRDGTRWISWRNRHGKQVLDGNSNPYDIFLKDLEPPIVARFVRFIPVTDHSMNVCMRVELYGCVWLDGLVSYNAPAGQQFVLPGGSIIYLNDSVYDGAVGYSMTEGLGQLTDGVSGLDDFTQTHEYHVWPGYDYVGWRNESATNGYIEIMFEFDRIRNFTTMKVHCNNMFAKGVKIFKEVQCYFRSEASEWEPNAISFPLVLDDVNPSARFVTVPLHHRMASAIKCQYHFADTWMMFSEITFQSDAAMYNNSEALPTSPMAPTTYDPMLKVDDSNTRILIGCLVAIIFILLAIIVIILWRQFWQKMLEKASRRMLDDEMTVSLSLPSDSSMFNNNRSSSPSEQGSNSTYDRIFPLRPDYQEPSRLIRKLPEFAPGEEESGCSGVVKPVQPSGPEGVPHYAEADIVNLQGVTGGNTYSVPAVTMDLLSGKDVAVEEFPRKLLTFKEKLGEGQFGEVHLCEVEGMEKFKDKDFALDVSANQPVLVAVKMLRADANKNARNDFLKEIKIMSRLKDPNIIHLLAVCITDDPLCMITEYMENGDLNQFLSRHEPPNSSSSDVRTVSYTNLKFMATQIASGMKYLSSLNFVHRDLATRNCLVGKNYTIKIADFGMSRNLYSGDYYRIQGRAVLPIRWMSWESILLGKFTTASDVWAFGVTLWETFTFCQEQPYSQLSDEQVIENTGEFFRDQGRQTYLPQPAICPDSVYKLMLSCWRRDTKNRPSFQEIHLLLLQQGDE

SMILES | % Enzyme Activity (relative to DMSO controls) (DDR2) [%] | % change from control at 100 μM ± SEM(n) [1] | % Enzyme Activity (relative to DMSO controls) (AURORA C) [%] | % Enzyme Activity (relative to DMSO controls) (Aurora A) [%] | % Enzyme Activity (relative to DMSO controls) (TNIK) [%] | Inhibition of liver lipogenesis [2] [%] | % Enzyme Activity (relative to DMSO controls) (FLT1/VEGFR1) [%] | Compound IC50 (M) ACC2 (Human ACC2) | % Enzyme Activity (relative to DMSO controls) (NEK2) [%] | % Enzyme Activity (relative to DMSO controls) (BMX/ETK) [%] | % Enzyme Activity (relative to DMSO controls) (MAPKAPK2) [%]
CC(C)(CCCCc1cccc(CCCCC(C)(C)C(=O)O)c1)C(=O)O [Compound I-32, 6-[3-(5-carboxy-5-methylhexyl)-phenyl]-2,2-dimethylhexanoic acid] | 85.83 | −82 ± 2.8 (n = 6) % | 97.44 | 93.33 | 99.68 | ~50 | 91.15 | * | 87.7 | 52.97 | 90.61
CC(C)(CCCCc1ccc(CCCCC(C)(C)C(=O)O)cc1)C(=O)O [Compound I-1, 6-[4-(5-carboxy-5-methylhexyl)-phenyl]-2,2-dimethylhexanoic acid] | 69.84 | −84 ± 1.0 (n = 6) % | 93.1 | 83.92 | 101.58 | 69 | 87.88 | * | 85.17 | 51.72 | 92.75
